Data taken from PubChem BioAssay (NCI).
Several values for one entry are separate records, joined by “and”; a condition that tells them apart may be missing. Identical values can stand only once.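 96-well plates; 48 h exposure; 5 concentrations. Endpoints by linear interpolation between flanking doses. Not reached: highest tested concentration assigned. Abbreviation: GI50, concentration required for 50% inhibition of growth. TGI is the concentration that stops growth completely.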

Legend:
Experiment in all cases: NCI tumour cell line growth inhibition, 48 h
MALME-3M melanoma = system: MALME-3M melanoma
NCI/ADR-RES ovarian = system: NCI/ADR-RES ovarian
CAKI-1 renal = system: CAKI-1 renal
SR leukemia = system: SR leukemia
U251 CNS = system: U251 CNS
UO-31 renal = system: UO-31 renal
DU-145 prostate = system: DU-145 prostate
SF-268 CNS = system: SF-268 CNS
SK-MEL-2 melanoma = system: SK-MEL-2 melanoma
UACC-257 melanoma = system: UACC-257 melanoma

Row | Compound | TGI (MALME-3M melanoma) | TGI (NCI/ADR-RES ovarian) | TGI (CAKI-1 renal) | TGI (SR leukemia) | TGI (U251 CNS) | TGI (UO-31 renal) | TGI (DU-145 prostate) | TGI (SF-268 CNS) | TGI (SK-MEL-2 melanoma) | TGI (UACC-257 melanoma) | GI50 (MALME-3M melanoma) | GI50 (NCI/ADR-RES ovarian) | GI50 (CAKI-1 renal) | GI50 (SR leukemia) [µM] | GI50 (U251 CNS) | GI50 (UO-31 renal) | GI50 (DU-145 prostate) | GI50 (SF-268 CNS) | GI50 (SK-MEL-2 melanoma) | GI50 (UACC-257 melanoma)
1 | COc1ccc2c3c1OC1C(OC)(OC)C=C[C@@]4(Br)[C@@H](C2)N(CC2CC2)CC[C@]314 (some centres undefined) | > 100 µM | > 100 µM | > 100 µM | > 100 µM | > 100 µM | > 100 µM | > 100 µM | > 100 µM | > 100 µM | > 100 µM | – | – | – | – | – | – | – | – | – | –
2 | COc1cc(-c2nc3sc(C)cn3c2/C=C2\C(=O)Nc3ccccc32)c(Br)c(OC)c1OC | 78.5 µM | 82.5 µM | 57 µM | > 100 µM | 54.8 µM | > 100 µM | 72.4 µM | > 100 µM | > 100 µM | 81.5 µM | 26.1 µM | 28.3 µM | 22.6 µM | 28.3 | 22.9 µM | 37.1 µM | 28.5 µM | 44.7 µM | 33.6 µM | 27.4 µM
3 | NC(=S)N/N=C1\c2ccccc2-c2c(F)c(F)c(F)c(F)c21 | 21.1 µM | 16.7 µM | 7.16 µM | 1.86 µM | 10.2 µM | 9.03 µM | 17 µM | 12.5 µM | 21.7 µM | 9.38 µM | 7.54 µM | 5.77 µM | 2.34 µM | 0.298 | 3.16 µM | 4.31 µM | 5.39 µM | 5.26 µM | 5.38 µM | 2.93 µM
4 | CC1(C)N=C(N)N=C(N)N1c1ccc(Cl)cc1 | > 100 µM | > 100 µM | > 100 µM | > 100 µM | > 100 µM | > 100 µM | > 100 µM | > 100 µM | > 100 µM | > 100 µM | 16.1 µM | > 100 µM | > 100 µM | 20.5 | 1.19 µM | > 100 µM | 5.35 µM | 0.688 µM | > 100 µM | 75 µM
5 | COC(=O)c1cc2oc(/C=C3/SC(=S)N(N)C3=O)cc2n1Cc1ccccc1 | 17.7 µM | 26.9 µM | 20.6 µM | > 100 µM | 14 µM | 10.6 µM | 15.7 µM | 7.73 µM | 18.7 µM | 21.5 µM | 1.91 µM | 4.61 µM | 2.98 µM | > 21.4 | 3.97 µM | 3.6 µM | 3.59 µM | 2.22 µM | 6.82 µM | 4.39 µM
6 | CC(C)(C)c1cc(NC(=O)Nc2ccc(-c3cn4c(n3)sc3cc(OCCN5CCOCC5)ccc34)cc2)no1 | 14.7 µM and 13.3 µM and > 10 µM | 24.7 µM and 19.2 µM and > 10 µM | 31.9 µM and 15.3 µM and > 10 µM | > 47.9 µM and 11.2 µM and > 10 µM | 12.9 µM and 5.25 µM and > 10 µM | 18.3 µM and 4.57 µM and > 10 µM | 22.5 µM and 13.3 µM and > 10 µM | 14.4 µM and 14.8 µM and > 10 µM | 20.3 µM and 16.2 µM and > 10 µM | 23.5 µM and 16 µM and > 10 µM | 2.62 µM and 1.59 µM and 6.17 µM | 2.81 µM and 4.61 µM and 7.95 µM | 10.9 µM and 2.6 µM and 6.93 µM | – | 0.941 µM and 0.511 µM and 2.72 µM | 3.62 µM and 0.45 µM and 3.93 µM | 10.7 µM and 2.28 µM and 9.69 µM | 3.17 µM and 2.19 µM and 5.09 µM | 6.73 µM and 2.78 µM and > 10 µM | 9.01 µM and 3.43 µM and > 10 µM
7 | Cn1c(=O)nc2n(-c3ccc(Cl)cc3)c3cc(Cl)ccc3nc-2c1=O | 3.44 µM | 35.6 µM | 20.7 µM | 29.8 µM | 33 µM | 24.2 µM | 29 µM | 7.23 µM | 5.63 µM | 3.51 µM | – | – | – | – | – | – | – | – | – | –
8 | Cc1cnc2oc3ccc(O)cc3c2c1-c1ccccc1 | > 100 µM | > 100 µM | > 100 µM | > 100 µM | 51 µM | > 100 µM | > 100 µM | 58.8 µM | > 100 µM | > 100 µM | 32.5 µM | 28.4 µM | 58.6 µM | > 100 | 17.9 µM | 51.6 µM | 62.5 µM | 16.1 µM | > 100 µM | > 100 µM
9 | CN(C)CC(=O)Nc1ccc2ncnc(Nc3ccc(Oc4cccc(C(F)(F)F)c4)c(Cl)c3)c2c1 | 3.36 µM | 13.2 µM | 7.54 µM | 9.15 µM | 3.99 µM | 2.32 µM | 6.78 µM | 5.44 µM | 4.37 µM | 4.25 µM | 1.68 µM | 3.06 µM | 1.71 µM | 2.46 | 1.79 µM | 0.951 µM | 2.13 µM | 1.97 µM | 2.04 µM | 2.05 µM
10 | O=C1CC(c2ccccc2)Cc2nc3ccc(Br)cc3cc21 (centres undefined) | > 91.8 µM | 9.03 µM | > 100 µM | > 36.8 µM | > 100 µM | > 100 µM | > 100 µM | > 100 µM | > 100 µM | > 100 µM | 0.076 µM | 0.0748 µM | 0.459 µM | 0.0855 | 0.514 µM | 0.689 µM | 0.209 µM | 4.65 µM | 0.283 µM | 23.6 µM
11 | C#Cc1cccc(Nc2ncnc3ccc(OCCCCNCCS(C)(=O)=O)cc23)c1 | 9.47 µM | > 25 µM | > 25 µM | 15.3 µM | > 23.3 µM | > 15.4 µM | > 25 µM | > 23.7 µM | 17.8 µM | 8.38 µM | 4.88 µM | 11.4 µM | 2.79 µM | 6.55 | 6.43 µM | 3.31 µM | 4.34 µM | 6.13 µM | 7.75 µM | 4.39 µM
12 | COC1=C(C)C(=O)c2c(c(CCCl)c3n2CCC3OC(C)=O)C1=O (centres undefined) | 0.414 µM | 8.47 µM | 2.15 µM | > 32.5 µM | 13.4 µM | 0.739 µM | 1.69 µM | 17.6 µM | 1 µM | 0.733 µM | 0.188 µM | 0.447 µM | 0.35 µM | 0.155 | 0.273 µM | 0.241 µM | 0.0248 µM | 0.31 µM | 0.319 µM | 0.227 µM
13 | O=C(C=P(c1ccccc1)(c1ccccc1)c1ccccc1)CCl | 3.08 µM | 10.5 µM | 2.81 µM | 10.5 µM | 3.7 µM | 2.38 µM | 2.38 µM | 4.01 µM | 3.87 µM | 2.59 µM | 1.32 µM | 1.86 µM | 0.98 µM | 0.38 | 1.58 µM | 1.04 µM | 1.13 µM | 1.75 µM | 1.79 µM | 1.14 µM
14 | Cc1ccc(C=C2C(Cl)=C(Cl)C(Cl)=C2Cl)cc1 | 2.62 µM | 1.52 µM | 2.16 µM | 0.444 µM | 1.96 µM | 2.18 µM | 3.13 µM | 2.28 µM | 4.87 µM | 4.32 µM | 0.933 µM | 0.324 µM | 0.503 µM | 0.166 | 0.664 µM | 0.757 µM | 0.926 µM | 0.617 µM | 1.9 µM | 1.58 µM
15 | CC(C)[C@@](O)(c1ccc2cc(OC(F)F)c(OC(F)F)cc2c1)c1cn[nH]n1 | 39.2 µM | 50.9 µM | 38.2 µM | 44.7 µM | 34.7 µM | 26.4 µM | 39.2 µM | 49.4 µM | 34.3 µM | 48.5 µM | 16.8 µM | 18.5 µM | 14.6 µM | 17.3 | 17.4 µM | 11.6 µM | 16.7 µM | 18.6 µM | 17.4 µM | 22.8 µM
16 | O=C1C=CC(=C(c2ccccc2)c2ccc(O)cc2)C=C1 | 28.6 µM | > 100 µM | 32.1 µM | 40.8 µM | 29.2 µM | 29.5 µM | 53.6 µM | 43.3 µM | 32 µM | 31.7 µM | – | – | – | – | – | – | – | – | – | –
